Measurements published in PubChem BioAssay AID1399 (The Scripps Research Institute Molecular Screening Center, 2008).

Each compound was assayed against Signal transducer and activator of transcription 3 (Homo sapiens) (UniProt P40763) (assay: STAT3 reporter inhibitors, potency, dose response, cell-based (AID 1399)). Conditions: human cell STAT3 reporter inhibition; cut-off not given, nearly all actives have IC50 up to about 8.9 µM.

IC50, active:
COc1ccc(Br)cc1/C(C)=N/NC1=NCCN1 5.44 µM
Clc1ccc2ncc(-c3nnnn3-c3ccccc3)c(-c3ccccc3)c2c1 8.01 µM
COc1ccc2nc3c(cc2c1)c(NC(=O)c1cccs1)nn3CC(C)C 3.75 µM
CCCOc1ccc(/C=N/NC(=S)Nc2ccccc2[N+](=O)[O-])c(O)c1 1.05 µM
CCOc1ncccc1C(=O)OCC(=O)Nc1ccc(-c2nc3ccc(C)cc3s2)cc1 3.25 µM
O=C(CSc1ccc2ccccc2c1)Nc1ccncc1 7.66 µM
